Measurements taken from patent US4740233A, “Substituted 1,2,4-triazolo[1,5-a]-pyrimidine-2-sulfonamides and compositions and methods of controlling undesired vegetation and suppressing the nitrification of ammonium nitrogen in soil” (The Dow Chemical Company, priority 1986, dated 1988).

Legend:
cotton = assay: Postemergent control of plant species; type: in vivo, Gossypium spp.; conditions: Gossypium hirsutum, post-emergence, 336 h, read-out: percent postemergent control
In short: (§1)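 Compounds in acetone mixed 1:1 with water containing 0.1% surfactant, sprayed postemergence on greenhouse plants at the 2-4 leaf stage. Growth reduction versus untreated plants of the same species scored after about two weeks.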

rape = assay: Postemergent control of plant species; type: in vivo, Brassica napus; conditions: Brassica napus, post-emergence, 336 h, read-out: percent postemergent control
In short: as §1

soybean = assay: Postemergent control of plant species; type: in vivo, Glycine max.; conditions: Glycine max, post-emergence, 336 h, read-out: percent postemergent control
In short: as §1

sugar beet = assay: Postemergent control of plant species; type: in vivo, Beta saccharifera; conditions: Beta vulgaris, post-emergence, 336 h, read-out: percent postemergent control
In short: as §1

cocklebur = assay: Postemergent control of plant species; type: in vivo, Xanthium spp.; conditions: Xanthium strumarium, post-emergence, 336 h, read-out: percent postemergent control
In short: as §1

jimsonweed = assay: Postemergent control of plant species; type: in vivo, Datura stramonium; conditions: Datura stramonium, post-emergence, 336 h, read-out: percent postemergent control
In short: as §1

annual morning glory = assay: Postemergent control of plant species; type: in vivo, Ipomoea spp.; conditions: Ipomoea, post-emergence, 336 h, read-out: percent postemergent control
In short: as §1

pigweed = assay: Postemergent control of plant species; type: in vivo, Amaranthus spp.; conditions: Amaranthus retroflexus, post-emergence, 336 h, read-out: percent postemergent control
In short: as §1

velvetleaf = assay: Postemergent control of plant species; type: in vivo, Abutilon theophrasti; conditions: Abutilon theophrasti, post-emergence, 336 h, read-out: percent postemergent control
In short: as §1

corn = assay: Postemergent control of plant species; type: in vivo, Zea mays; conditions: Zea mays, post-emergence, 336 h, read-out: percent postemergent control
In short: as §1

rice [1] = assay: Postemergent control of plant species; type: in vivo, Oryza sativa; conditions: Oryza sativa, post-emergence, 336 h, read-out: percent postemergent control
In short: as §1

sorghum = assay: Postemergent control of plant species; type: in vivo, Sorghum vulgare; conditions: Sorghum, post-emergence, 336 h, read-out: percent postemergent control
In short: as §1

wheat = assay: Postemergent control of plant species; type: in vivo, Triticum aestivum; conditions: Triticum aestivum, post-emergence, 336 h, read-out: percent postemergent control
In short: as §1

barnyardgrass [2] = assay: Postemergent control of plant species; type: in vivo, Echinochloa crusgalli; conditions: Echinochloa crus-galli, post-emergence, 336 h, read-out: percent postemergent control
In short: as §1

crabgrass = assay: Postemergent control of plant species; type: in vivo, Digitaria spp.; conditions: Digitaria sanguinalis, post-emergence, 336 h, read-out: percent postemergent control
In short: as §1

yellow foxtail = assay: Postemergent control of plant species; type: in vivo, Setaria lutescens; conditions: Setaria, post-emergence, 336 h, read-out: percent postemergent control
In short: as §1

johnson grass = assay: Postemergent control of plant species; type: in vivo, Sorghum halepense; conditions: Sorghum halepense, post-emergence, 336 h, read-out: percent postemergent control
In short: as §1

wild oats = assay: Postemergent control of plant species; type: in vivo, Avena fatua; conditions: Avena fatua, post-emergence, 336 h, read-out: percent postemergent control
In short: as §1

yellow nutsedge [3] = assay: Postemergent control of plant species; type: in vivo, Cyperus esculentus; conditions: Cyperus, post-emergence, 336 h, read-out: percent postemergent control
In short: as §1

rice [4] = assay: Control of aquatic plant species (paddy water); type: in vivo, Oryza sativa; conditions: Oryza sativa, 216 h; 2.0 Kg/Ha, nine days; read-out: Percent control
In short: (§2)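 Plants transplanted at 1-2 inch stage into soil, flooded about 1 inch deep; acetone concentrate of compound injected into paddy water at varied volumes to set concentration. Percent control scored nine days after application.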

barnyardgrass [5] = assay: Control of aquatic plant species (paddy water); type: in vivo, Echinochloa crusgalli; conditions: Echinochloa crus-galli, 216 h; 2.0 Kg/Ha, nine days; read-out: Percent control
Protocol: In testing for such utility, the plant species to be tested were transplanted into 16 oz. containers into about 2 inches of soil when they were in the 1-2 inch stage and then flooded to a depth of about 1 inch. An acetone concentrate of the chemical to be tested was then injected into the paddy water, the volume injected being varied as desired to provide the desired concentration. Percent control was evaluated nine days after application.

sprangletop = assay: Control of aquatic plant species (paddy water); type: in vivo, Leptochloa filiformis; conditions: Leptochloa filiformis, 216 h; 2.0 Kg/Ha, nine days; read-out: Percent control
In short: as §2

yellow nutsedge [6] = assay: Control of aquatic plant species (paddy water); type: in vivo, Cyperus esculentus; conditions: Cyperus, 216 h; 2.0 Kg/Ha, nine days; read-out: Percent control
In short: as §2

[7] = test system: nitrification of ammonium nitrogen; assay: Suppression of nitrification of ammonium nitrogen in soil; conditions: 27° C.
In short: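 Soil (20 g) moistened to its 1/3 bar tension value, mixed with test chemical and incubated sealed for two weeks at 27° C. Nitrate extracted with ammonium sulfate solution and measured by nitrate-specific ion electrode; value given as % NH4-N remaining.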

Structure (SMILES) | plant injury at 500 ppm (cotton) | plant injury at 500 ppm (rape) | plant injury at 500 ppm (soybean) | plant injury at 500 ppm (sugar beet) | pest or weed control at 500 ppm (cocklebur) | pest or weed control at 500 ppm (jimsonweed) | pest or weed control at 500 ppm (annual morning glory) | pest or weed control at 500 ppm (pigweed) | pest or weed control at 500 ppm (velvetleaf) | plant injury at 500 ppm (corn) | plant injury at 500 ppm (rice [1]) | plant injury at 500 ppm (sorghum) | plant injury at 500 ppm (wheat) | pest or weed control at 500 ppm (barnyardgrass [2]) | pest or weed control at 500 ppm (crabgrass) | pest or weed control at 500 ppm (yellow foxtail) | pest or weed control at 500 ppm (johnson grass) | pest or weed control at 500 ppm (wild oats) | pest or weed control at 500 ppm (yellow nutsedge [3]) | pest or weed control at 2000 g/ha (rice [4]) | other results
Cc1cc(C)n2nc(S(=O)(=O)Nc3ccccc3)nc2n1 [Compound 1] | 0% | 60% | 30% | 85% | 0% | 0% | 0% | 60% | 70% | 0% | 0% | 40% | 0% | 15% | 0% | 40% | 60% | 0% | 0% | 97% | pest or weed control at 2000 g/ha (barnyardgrass [5]): 95%; pest or weed control at 2000 g/ha (sprangletop): 90%; pest or weed control at 2000 g/ha (yellow nutsedge [6]): 70%; % NH4-N Remaining After 2 Weeks Incubation ([7]; 0.01 ppm): 0%; % NH4-N Remaining After 2 Weeks Incubation ([7]; 0.1 ppm): 0%; % NH4-N Remaining After 2 Weeks Incubation ([7]; 1 ppm): 35%; % NH4-N Remaining After 2 Weeks Incubation ([7]; 10 ppm): 75%
COc1ccccc1NS(=O)(=O)c1nc2nc(C)cc(C)n2n1 [Compound 4] | 10% | 40% | 40% | 70% | 40% | 60% | 0% | 0% | 60% | 0% | 40% | 40% | 0% | 0% | 20% | 0% | 80% | 0% | 0% | 90% | pest or weed control at 2000 g/ha (barnyardgrass [5]): 95%; pest or weed control at 2000 g/ha (sprangletop): 45%; pest or weed control at 2000 g/ha (yellow nutsedge [6]): 80%; % NH4-N Remaining After 2 Weeks Incubation ([7]; 0.01 ppm): 0%; % NH4-N Remaining After 2 Weeks Incubation ([7]; 0.1 ppm): 0%; % NH4-N Remaining After 2 Weeks Incubation ([7]; 1 ppm): 38%; % NH4-N Remaining After 2 Weeks Incubation ([7]; 10 ppm): 71%
